According to patent US6818670B2, “Active ingredient combination having insecticidal and acaricidal characteristics” (priority 1999, dated 2004):

Legend:
Type in all cases: in vivo
[1] = tested on: fall army worm caterpillars (Spodoptera exigua); assay: Spodoptera exigua test (cabbage leaves, immersion); details: single active compound, 8 ppm
Procedure: (§1) To produce a suitable preparation of active compound, 1 part by weight of active compound is mixed with the stated amounts of solvent and emulsifier, and the concentrate is diluted with emulsifier-containing water to the desired concentration.
Cabbage leaves (Brassica oleracea) are treated by immersion in the active compound preparation of the desired concentration and are populated with fall army worm caterpillars (Spodoptera exigua) while the leaves are still moist.
(§2) After the desired period, the destruction is determined in %. 100% means that all caterpillars have been killed; 0% means that none of the caterpillars have been killed. The kill figures determined are calculated using Colby's formula.

[2] = tested on: green rice leaf-hoppers (Nephotettix cincticeps); assay: Nephotettix test (rice seedlings, immersion); details: single active compound, 0.32 ppm
Procedure: as §1
Rice seedlings (Oryza sativa) are treated by immersion in the active compound preparation of the desired concentration and are populated with green rice leaf-hoppers (Nephotettix cincticeps) while the leaves are still moist.
After the desired period, the destruction is determined in %. 100% means that all leafhoppers have been killed; 0% means that none of the leafhoppers have been killed. The kill figures determined form the basis for calculations with Colby's formula.

[3] = tested on: Heliothis virescens caterpillars; assay: Heliothis virescens test (soya bean shoots, immersion); details: single active compound, 0.32 ppm
Procedure: (§3) To produce a suitable active compound preparation, 1 part by weight of active compound is mixed with the stated amounts of solvent and emulsifier, and the concentrate is diluted with emulsifier-containing water to the desired concentration.
Soya bean shoots (Glycine max) are treated by immersion in the active compound preparation of the desired concentration and are populated with Heliothis virescens caterpillars while the leaves are still moist.
as §2

[4] = tested on: diamond-back moth caterpillars (Plutella xylostella); assay: Plutella test (cabbage leaves, immersion); details: single active compound, 1.6 ppm
Procedure: as §3
Cabbage leaves (Brassica oleracea) are treated by immersion in the active compound preparation of the desired concentration and are populated with diamond-back moth caterpillars (Plutella xylostella) while the leaves are still moist.
as §2

[5] = tested on: common spider mite (Tetranychus urticae); assay: Tetranychus test (OP-resistant/spray treatment, bean plants); details: single active compound, 0.32 ppm, OP-resistant, spray treatment
Procedure: OP-resistant/spray Treatment
as §3
Bean plants (Phaseolus vulgaris) which are severely infested with all stages of the common spider mite (Tetranychus urticae) are sprayed with an active compound preparation of the desired concentration.
After the desired period, the action is determined in %. 100% means that all spider mites have been killed; 0% means that none of the spider mites have been killed. The kill figures determined are calculated using Colby's formula.

Row | SMILES | Percentage destruction after 6 days [1] [%] | Percentage destruction after 6 days [2] [%] | Percentage destruction after 3 days [3] [%] | Percentage destruction after 3 days [4] [%] | Percentage destruction after 14 days [5] [%]
1 | CCC(C)(C)C(=O)OC1=C(c2ccc(Cl)cc2Cl)C(=O)OC12CCCCC2 [Ex. (I-b-1)] | 0 | 0 | 0 | 0 | 0
2 | COP(N)(=O)SC (stereo not shown) [Methamidophos, methamidophos] |  |  |  |  | 0
3 | CC1(C)C(C=C(Cl)Cl)C1C(=O)OC(C#N)c1ccc(F)c(Oc2ccccc2)c1 (stereo not shown) [Betacyfluthrin, betacyfluthrin] | 90 | 50 | 75 | 80 | 
